Source: patent publication US11053253B2, “Macrocyclic compounds for treatment of medical disorders” (Achillion Pharmaceuticals, Inc., priority 2017, dated 2021)

Each compound was assayed against Human Factor D (Homo sapiens (Human), UniProt P00746) (assay: Human Factor D Assay). Conditions: Human Factor D 80 nM, substrate Z-L-Lys-SBzl, DTNB, A405; read-out: IC50 (Stars).
Format: biochemical
Procedure: Example 2. Human Factor D Assay
Human Factor D (purified from human serum, Complement Technology, Inc.) at 80 nM final concentration is incubated with test compound at various concentrations for 5 min at room temperature in 50 mM Tris, 1M NaCl, pH 7.5. A synthetic substrate Z-L-Lys-SBzl and DTNB (Ellman's reagent) are added to final concentrations of 100 µM each. Absorbance at 405 nm (A405) is recorded at 30 second intervals for 30 minutes using a microplate spectrophotometer. IC50 values are calculated by nonlinear regression of Complement Factor D reaction rates as a function of test compound concentration.

Sequence of Human Factor D (P00746 26-253): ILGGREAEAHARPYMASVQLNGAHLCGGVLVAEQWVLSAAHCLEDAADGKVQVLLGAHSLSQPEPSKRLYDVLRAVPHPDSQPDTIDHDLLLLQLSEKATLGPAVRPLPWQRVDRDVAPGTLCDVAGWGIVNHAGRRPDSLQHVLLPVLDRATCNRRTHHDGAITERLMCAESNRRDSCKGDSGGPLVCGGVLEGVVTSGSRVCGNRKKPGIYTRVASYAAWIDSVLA

Structure (SMILES)	IC50 [µM]
CC(=O)c1nn(CC(=O)N2[C@H]3C[C@@]4(CNC(=O)C(C)(C)CC=CCOCc5ccc(Br)nc5NC3=O)C[C@@H]24)c2cnc(-c3cnc(C)nc3)cc12 [Compound T-114]	< 1
Cc1ncc(-c2cc3c4c(c2)c(C(N)=O)nn4CC(=O)N2[C@H](C(=O)Nc4nc(C(F)(F)F)ccc4C)C[C@@]4(CNC(=O)CCCC=CC3)C[C@@H]24)cn1 [Compound T-134]	< 1
CC(=O)c1nn2c3c(cc(-c4cnc(C)nc4)cc13)CCCCCCC(=O)NC[C@@]13C[C@@H](C(=O)Nc4cc(F)cc(Br)n4)N(C(=O)C2)[C@@H]1C3 [Compound T-90]	< 1
CC(=O)c1nn2c3c(cc(-c4cnc(C)nc4)cc13)CCCCCCC(=O)NC[C@@]13C[C@@H](C(=O)NCc4cccc(Cl)c4F)N(C(=O)C2)[C@@H]1C3 [Compound T-86]	< 1
CC(=O)c1cc2n(n1)CC(=O)N1[C@@H](C[C@@]3(C)C[C@@H]13)C(=O)Nc1nc(Br)ccc1COC/C=C\CCNC2=O [Compound T-15, (18aS,19aR,20aR,Z)-2-acetyl-15-bromo-19a-methyl-6,7,12,17,18a,19,19a,20,20a,23-decahydro-4H-cyclopropa[4,5]pyrrolo[2,1-g]pyrazolo[1,5-k]pyrido[3,2-c][1,5,8,11,14]oxatetraazacyclononadecine-4,18,22(5H,10H)-trione]	> 10
CC(=O)c1nn2c3c(cc(-c4cnc(C)nc4)cc13)CCCCCCC(=O)NC[C@@]13C[C@@H](C(=O)NC[Si](C)(C)C)N(C(=O)C2)[C@@H]1C3 [Compound T-196]	1 to 10
CC(=O)c1nn2c3c(cc(-c4cnc(C)nc4)cc13)CCCCNC(=O)NC[C@@]13C[C@@H](C(=O)Nc4nc(C(F)(F)F)ccc4C)N(C(=O)C2)[C@@H]1C3 [Compound T-237]	< 1
CC(=O)c1nn(CC(=O)N2C3CC34CNC(=O)CCC=CCOCc3ccc(Br)nc3NC(=O)[C@@H]2C4)c2ccc(-c3cnc(C)nc3)cc12 (stereo partly drawn) [Compound T-2, (43S)-44-(2-(3-acetyl-5-(2-methylpyrimidin-5-yl)-1H-indazol-1-yl)acetyl)-16-bromo-13-oxa-44,2,6-triaza-1(2,3)-pyridina-4(3,1)-bicyclo[3.1.0]hexanacyclotetradecaphan-10-ene-3,7-dione]	< 1
CC(=O)c1nn2c3c(cc(-c4cnc(C)nc4)cc13)CC=CCC[C@H](C)C(=O)N(C)C[C@@]13C[C@@H](C(=O)Nc4nc(C(F)(F)F)ccc4C)N(C(=O)C2)[C@@H]1C3 [Compound T-243]	< 1
CC(=O)c1nn(CC(=O)N2[C@H]3C[C@@]4(CCCC=CCOCc5ccc(Br)nc5NC3=O)C[C@@H]24)c2c(CF)cc(-c3cnc(C)nc3)cc12 [Compound T-89]	< 1
Cc1ncc(-c2cc3c4c(c2)c(C#N)nn4CC(=O)N2[C@H](C(=O)Nc4nc(C(F)(F)F)ccc4C)C[C@@]4(COCC=CCCC3)C[C@@H]24)cn1 [Compound T-154]	< 1
Cc1ncc(-c2cc3c(C#N)nn4c3c(n2)CCCCCCOC[C@@]23C[C@@H](C(=O)Nc5nc(C(F)(F)F)ccc5C)N(C(=O)C4)[C@@H]2C3)cn1 [Compound T-155]	< 1
CC(=O)c1nn2c3c(cc(-c4cnc(C)nc4)cc13)CCCCCCC(=O)NC[C@@]13C[C@@H](C(=O)Nc4ccn(CC(F)(F)F)n4)N(C(=O)C2)[C@@H]1C3 [Compound T-92]	< 1
CC(=O)c1nn2c3c(cc(-c4cnc(C)nc4)cc13)CCCCCCCN(C)C[C@@]13C[C@@H](C(=O)Nc4nc(Br)ccc4C)N(C(=O)C2)[C@@H]1C3 [Compound T-122]	1 to 10
CC(=O)c1nn2c3c(cc(-c4cnc(C)nc4)cc13)CCCCCCC(=O)NC[C@@]13C[C@@H](C(=O)N[C@@H](C)c4ccccc4)N(C(=O)C2)[C@@H]1C3 [Compound T-176]	< 1
CC(=O)c1nn(CC(=O)N2[C@H]3C[C@@]4(COCC=CCOCc5cccnc5NC3=O)C[C@@H]24)c2ccc(-c3cnc(C)nc3)cc12 [Compound T-5, (41R,43S,45S)-42-(2-(3-acetyl-5-(2-methylpyrimidin-5-yl)-1H-indazol-1-yl)acetyl)-6,11-dioxa-42,2-diaza-1(2,3)-pyridina-4(3,5)-bicyclo[3.1.0]hexanacyclododecaphan-8-en-3-one]	< 1
CC(=O)c1nn(CC(=O)N2[C@H]3C[C@@]4(CNS(=O)(=O)CCC=Cc5ccc(Br)nc5NC3=O)C[C@@H]24)c2ccc(-c3cnc(C)nc3)cc12 [Compound T-9, (41R,43S,45R)-42-(2-(3-acetyl-5-(2-methylpyrimidin-5-yl)-1H-indazol-1-yl)acetyl)-16-bromo-7-thia-42,2,6-triaza-1(2,3)-pyridina-4(3,5)-bicyclo[3.1.0]nexanacycloundecaphan-10-en-3-one 7,7-dioxide]	< 1
CC(=O)c1nn2c3c(cc(-c4cnc(C)nc4)cc13)CC=CCCCC(=O)NC[C@@]13C[C@@H](C(=O)NCc4cccc(Cl)c4)N(C(=O)C2)[C@@H]1C3 [Compound T-94]	< 1
CC(=O)c1nn2c3cc(c(-c4cnc(C)nc4)cc13)OCCC/C=C/COC[C@@]13C[C@@H](C(=O)Nc4nc(Br)ccc4C)N(C(=O)C2)[C@@H]1C3 [Compound T-79]	< 1

Structure (SMILES)	IC50 [µM]
COc1cc(Br)nc(NC(=O)[C@@H]2C[C@]34CNC(=O)CCCCCCc5cc(-c6cnc(C)nc6)cc6c(C(C)=O)nn(c56)CC(=O)N2[C@@H]3C4)c1 [Compound T-210]	< 1
CC(=O)N[C@@H]1CC=CCOCc2ccc(Br)nc2NC(=O)[C@@H]2C[C@]3(C[C@H]3N2C(=O)Cn2nc(C(C)=O)c3cc(-c4cnc(C)nc4)ccc32)CN(C)C1=O [Compound T-96]	< 1
CC(=O)c1nn2c3c(cc(-c4cnc(C)nc4)cc13)CCCCCCC(=O)NC[C@@]13C[C@@H](C(=O)N[C@H](C)CC(C)(C)C)N(C(=O)C2)[C@@H]1C3 [Compound T-231]	< 1
CC(=O)c1nn(CC(=O)N2[C@H]3C[C@@]4(CNC(=O)CCOCc5ccc(Br)nc5NC3=O)C[C@@H]24)c2ccc(-c3cnc(C)nc3)cc12 [Compound T-164]	< 1
CC(=O)c1nn(CC(=O)N2[C@H]3C[C@]4(C[C@@H]24)CN(C)CCCCC=Cc2ccc(Br)nc2NC3=O)c2cnccc12 [Compound T-13, (41R,43S,45R)-42-(2-(3-acetyl-1H-pyrazolo[3,4-c]pyridin-1-yl)acetyl)-16-bromo-6-methyl-42,2,6-triaza-1(2,3)-pyridina-4(3,5)-bicyclo[3.1.0]hexanacyclododecaphan-11-en-3-one]	< 1
CC(=O)c1nn2c3c(cc(-c4cnc(C)nc4)cc13)CCCCCCCCCOC[C@@]13C[C@@H](C(=O)Nc4nc(Br)ccc4C)N(C(=O)C2)[C@@H]1C3 [Compound T-24, (41R,43S,45S)-13-acetyl-N-(6-bromo-3-methylpyridin-2-yl)-15-(2-methylpyrimidin-5-yl)-3-oxo-11H-6-oxa-42-aza-1(1,7)-indazola-4(2,5)-bicyclo[3.1.0]hexanacyclopentadecaphane-43-carboxamide]	< 1
CC(=O)c1nn2c3c(cc(-c4cnc(C)nc4)cc13)CCCCCCC=CCc1ccc(Br)nc1NC(=O)[C@@H]1C[C@@]3(C)C[C@H]3N1C(=O)C2 [Compound T-37]	< 1
CC(=O)c1nn(CC(=O)N2[C@H]3C[C@]4(C[C@@H]24)Cn2ccc(n2)/C=C\COCc2ccc(Br)nc2NC3=O)c2cnc(-c3cnc(C)nc3)cc12 [Compound T-70]	< 1
CC(=O)c1nn(CC(=O)N2[C@H]3C[C@@]4(COc5cccc(n5)CCCCCCCc5ccc(Br)nc5NC3=O)C[C@@H]24)c2ccc(-c3cnc(C)nc3)cc12 [Compound T-165]	< 1
CC(=O)c1nn(CC(=O)N2[C@H]3C[C@]4(C[C@@H]24)CN(C)CC=CCOCc2ccc(Br)nc2NC3=O)c2ccc(-c3cnc(C)nc3)cc12 [Compound T-6, (41R,43S,45R)-42-(2-(3-acetyl-5-(2-methylpyrimidin-5-yl)-1H-indazol-1-yl)acetyl)-16-bromo-6-methyl-11-oxa-42,2,6-triaza-1(2,3)-pyridina-4(3,5)-bicyclo[3.1.0]hexanacyclododecaphan-8-en-3-one]	< 1
COCc1ccc(Br)nc1NC(=O)[C@@H]1C[C@]23CNC(=O)CCCC=CCc4cc(-c5cnc(C)nc5)cc5c(C(C)=O)nn(c45)CC(=O)N1[C@@H]2C3 [Compound T-240]	< 1
CC(=O)c1nn2c3c(cc(-c4cnc(C)nc4)cc13)CCCCCCC(=O)NC[C@@]13C[C@@H](C(=O)NCCC(C)(C)C)N(C(=O)C2)[C@@H]1C3 [Compound T-177]	< 1
CC(=O)c1nn2c3c(cc(-c4cnc(C)nc4)cc13)CC=CCCCC(=O)NC[C@@]13C[C@@H](C(=O)Nc4nc(C(F)(F)F)ccc4C)N(C(=O)C2)[C@@H]1C3 [Compound T-219]	< 1
CC(=O)c1nn(CC(=O)N2C[C@@]3(F)CNC(=O)CCCCCOCc4ccc(Br)nc4NC(=O)[C@@H]2C3)c2cnc(-c3cnc(C)nc3)cc12 [Compound T-169]	< 1
CC(=O)c1nn(CC(=O)N2[C@H]3C[C@@]4(CNC(=O)C(F)(F)CCCCOCc5ccc(Br)nc5NC3=O)C[C@@H]24)c2ccc(-c3cnc(C)nc3)cc12 [Compound T-120]	< 1
CC(=O)c1nn(CC(=O)N2[C@H]3C[C@@]4(CNC(=O)C(C)(C)CCCOCc5ccc(C(F)(F)F)nc5NC3=O)C[C@@H]24)c2cnc(-c3cnc(C)nc3)cc12 [Compound T-225]	< 1
CC(=O)c1nn2c3c(cc(-c4cnc(C)nc4)cc13)CCCCCCC(=O)NC[C@@]13C[C@@H](C(=O)NC/C(F)=C(/C)c4ccccc4)N(C(=O)C2)[C@@H]1C3 [Compound T-197]	< 1
COc1cc(NC(=O)[C@@H]2C[C@]34CNC(=O)CCCC=CCc5cc(-c6cnc(C)nc6)cc6c(C(C)=O)nn(c56)CC(=O)N2[C@@H]3C4)nc(Br)c1F [Compound T-229]	< 1
